Experimental data: ChEMBL document CHEMBL1201862, “PubChem BioAssay data set” (2004)
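Cultured in 96-well plates, cells were exposed to test compound for 48 hours across five concentrations. Here, GI50 denotes the concentration required for 50% inhibition of growth.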 The source made the active and inactive calls. Rule as the data show it: active = GI50 up to about 1.1 µM and inactive = higher.

What was measured:
Experiment in all cases: NCI anticancer screen, dose series, 48 h
UO-31 = test system: UO-31
HCT-116 = test system: HCT-116
KM-20L2 = test system: KM-20L2
UACC-257 = test system: UACC-257
786-0 = test system: 786-0
HCT-15 = test system: HCT-15
M14 = test system: M14
OVCAR-8 = test system: OVCAR-8
KM12 = test system: KM12
MOLT-4 = test system: MOLT-4
SNB-19 = test system: SNB-19
NCI-H522 = test system: NCI-H522
U-251 = test system: U-251
OVCAR-5 = test system: OVCAR-5
COLO 205 = test system: COLO 205
NCI-H23 = test system: NCI-H23
SN12C = test system: SN12C
RXF 393 = test system: RXF 393
T47D = test system: T47D
MDA-MB-231 = test system: MDA-MB-231

Compound	GI50 (UO-31)	GI50 (HCT-116)	GI50 (KM-20L2)	GI50 (UACC-257)	GI50 (786-0)	GI50 (HCT-15) [µM]	GI50 (M14)	GI50 (OVCAR-8)	GI50 (KM12)	GI50 (MOLT-4)	GI50 (SNB-19)	GI50 (NCI-H522)	GI50 (U-251)	GI50 (OVCAR-5)	GI50 (COLO 205)	GI50 (NCI-H23)	GI50 (SN12C)	GI50 (RXF 393)	GI50 (T47D)	GI50 (MDA-MB-231)
C/C1=N\[N-]C(=O)c2ccccc2C(=O)N/N=C(\C)c2cccc1n2.O=[N+]([O-])[O-].[Zn+2]	> 100 µM (inactive)	> 100 µM (inactive)	> 100 µM (inactive)	> 100 µM (inactive)	> 100 µM (inactive)	> 100	> 100 µM (inactive)	> 100 µM (inactive)	> 100 µM (inactive)	> 100 µM (inactive)	> 100 µM (inactive)	> 100 µM (inactive)	> 100 µM (inactive)	> 100 µM (inactive)	> 100 µM (inactive)	> 100 µM (inactive)	> 100 µM (inactive)	–	–	–
COC(=O)C1CC/C(=N/C2c3ccccc3-c3ccccc32)N1 (configuration not stated)	> 100 µM (inactive)	> 100 µM (inactive)	> 100 µM (inactive)	> 100 µM (inactive)	> 100 µM (inactive)	> 100	> 100 µM (inactive)	> 100 µM (inactive)	> 100 µM (inactive)	24.2 µM (inactive)	> 100 µM (inactive)	19.6 µM (inactive)	> 100 µM (inactive)	> 100 µM (inactive)	47.8 µM (inactive)	> 100 µM (inactive)	> 100 µM (inactive)	–	–	–
NC(=O)c1cccc([N+](=O)[O-])c1	> 100 µM (inactive)	–	> 100 µM (inactive)	> 100 µM (inactive)	> 100 µM (inactive)	> 100	> 100 µM (inactive)	> 100 µM (inactive)	> 100 µM (inactive)	> 100 µM (inactive)	> 100 µM (inactive)	> 100 µM (inactive)	> 100 µM (inactive)	–	> 100 µM (inactive)	> 100 µM (inactive)	> 100 µM (inactive)	–	–	–
Cc1[nH]c(=O)nc(N/N=C/c2ccc(O)cc2)c1C(=O)Nc1ccc(Cl)cc1	> 100 µM (inactive)	> 100 µM (inactive)	> 100 µM (inactive)	> 100 µM (inactive)	> 100 µM (inactive)	> 100	45.5 µM (inactive)	> 100 µM (inactive)	> 100 µM (inactive)	> 100 µM (inactive)	> 100 µM (inactive)	> 100 µM (inactive)	> 100 µM (inactive)	–	> 100 µM (inactive)	–	> 100 µM (inactive)	–	–	–
C=CC(=O)N1C/C(=C\c2ccc(F)cc2)C(=O)/C(=C/c2ccc(F)cc2)C1	0.849 µM (active)	0.0557 µM (active)	–	1.19 µM (inactive)	0.222 µM (active)	0.166	0.328 µM (active)	0.28 µM (active)	0.193 µM (active)	0.207 µM (active)	0.944 µM (active)	0.476 µM (active)	0.188 µM (active)	0.622 µM (active)	0.391 µM (active)	1.27 µM (inactive)	0.454 µM (active)	0.185 µM (active)	4.57 µM (inactive)	0.461 µM (active)
O=C1CC2C=CC(O)C(C1)C2 (configuration not stated)	> 100 µM (inactive)	> 100 µM (inactive)	–	> 100 µM (inactive)	> 100 µM (inactive)	> 100	> 100 µM (inactive)	> 100 µM (inactive)	> 100 µM (inactive)	> 100 µM (inactive)	> 100 µM (inactive)	> 100 µM (inactive)	> 100 µM (inactive)	> 100 µM (inactive)	> 100 µM (inactive)	> 100 µM (inactive)	> 100 µM (inactive)	3.49 µM (inactive)	> 100 µM (inactive)	> 100 µM (inactive)
CN(C)Cc1c[nH]c2ncnc(O)c12	62.2 µM (inactive)	22.4 µM (inactive)	–	23 µM (inactive)	23.2 µM (inactive)	35.5	41.2 µM (inactive)	29 µM (inactive)	> 100 µM (inactive)	7.8 µM (inactive)	70.1 µM (inactive)	> 100 µM (inactive)	51.6 µM (inactive)	> 100 µM (inactive)	35.8 µM (inactive)	32.2 µM (inactive)	34.2 µM (inactive)	18.6 µM (inactive)	33.1 µM (inactive)	72.4 µM (inactive)
CC(C)=CCC/C(C)=C/CC/C(C)=C/CC/C(C)=C/CC/C(C)=C/CC/C(C)=C/CC/C(C)=C/CC/C(C)=C/CC/C(C)=C/CO [SOLANESOL]	> 100 µM (inactive)	> 100 µM (inactive)	–	> 100 µM (inactive)	> 100 µM (inactive)	> 100	> 100 µM (inactive)	> 100 µM (inactive)	> 100 µM (inactive)	> 100 µM (inactive)	> 100 µM (inactive)	> 100 µM (inactive)	> 100 µM (inactive)	> 100 µM (inactive)	> 100 µM (inactive)	> 100 µM (inactive)	> 100 µM (inactive)	> 100 µM (inactive)	> 100 µM (inactive)	> 100 µM (inactive)
O=C1C(/N=N/c2ccc(-c3nc4ccccc4[nH]3)cc2)NC(=S)N1c1ccccc1 (configuration not stated)	> 100 µM (inactive)	36.8 µM (inactive)	–	> 100 µM (inactive)	18.9 µM (inactive)	18.2	> 100 µM (inactive)	47.2 µM (inactive)	18 µM (inactive)	18.9 µM (inactive)	> 100 µM (inactive)	48.6 µM (inactive)	33 µM (inactive)	> 100 µM (inactive)	73.6 µM (inactive)	57.4 µM (inactive)	> 100 µM (inactive)	13.4 µM (inactive)	18.8 µM (inactive)	> 100 µM (inactive)
Nc1ccn([C@H]2CO[C@@H](CO)O2)c(=O)n1	1.57 µM (inactive)	1.39 µM (inactive)	–	97.7 µM (inactive)	2.87 µM (inactive)	5.4	0.83 µM (active)	1.51 µM (inactive)	> 100 µM (inactive)	0.28 µM (active)	4.26 µM (inactive)	7.03 µM (inactive)	10.5 µM (inactive)	27.9 µM (inactive)	83 µM (inactive)	15.1 µM (inactive)	1.95 µM (inactive)	1.83 µM (inactive)	> 35.6 µM (inactive)	> 55.7 µM (inactive)
CN(CCNC(=O)c1cn(C)c2c1ccc1cc(Cl)ccc12)CCNC(=O)c1cn(C)c2c1ccc1cc(Cl)ccc12	1.53 µM (inactive)	1.71 µM (inactive)	–	6.38 µM (inactive)	1.99 µM (inactive)	1.78	1.59 µM (inactive)	6 µM (inactive)	1.67 µM (inactive)	5.01 µM (inactive)	1.83 µM (inactive)	1.85 µM (inactive)	7.59 µM (inactive)	1.97 µM (inactive)	1.2 µM (inactive)	2.01 µM (inactive)	1.78 µM (inactive)	1.57 µM (inactive)	2.13 µM (inactive)	6.62 µM (inactive)
